Source: article PMC12491243, “Rational design of indoleamine 2,3-dioxygenase 1 (IDO1) inhibitors featuring 1,2,3-triazole derivatives with enhanced anti-inflammatory and analgesic efficacy” (Frontiers in Pharmacology, 2025)

Columns and labels:
[1] = test system: CFA-induced inflammatory pain model; experiment: CFA-induced mechanical allodynia, von Frey paw withdrawal frequency; type: in vivo; details: CFA mice, 30 mg/kg i.p., 0.07 g and 0.4 g von Frey filaments, ipsilateral side, 12 to 72 h post-CFA
Protocol: To evaluate the analgesic effects of Compound 14e in vivo, we established an inflammatory pain model using intraplantar injection of CFA. Compound 14e (30 mg/kg) was administered intraperitoneally at 6 h, with subsequent doses at 48 and 72 h after CFA injection. Behavioral assessments, including von Frey testing for mechanical allodynia and heat stimuli for thermal hyperalgesia, were conducted on the injected hind paw at baseline (BL), as well as at 6, 12, 18, 24, 48 and 72 h post-CFA injection. Additionally, flinching and guarding behaviors, indicators of spontaneous pain, were evaluated 72 h after CFA injection. […] (A,B) Evaluation of CFA-induced mechanical allodynia as assessed by withdrawal frequency to 0.07 g (A) and 0.4 g (B) von Frey filaments in mice repetitive treated with 10% DMSO or compound 14e. […] The dosage of compound 14e was determined based on our preliminary experiments. Mechanical hypersensitivity was assessed by measuring paw withdrawal frequency (PWF) as described previously in our reports ([Ma et al., 2021]; [Pan et al., 2021]). The PWF in response to mechanical stimulus was determined using two calibrated von Frey filaments (0.07 and 0.4 g, North Coast Medical Inc., Gilroy, United States). […] The PWF was calculated based on the number of positive responses from the 10 applications ([number of paw withdrawals/10 trials] × 100 = % response frequency).

IDO1 = molecular target: T1, IDO1 (Homo sapiens, UniProt P14902); experiment: HeLa cell-based IDO1 inhibition assay; details: HeLa cells, 100 ng/mL human IFN-γ, 18 h, kynurenine absorbance at 480 nm
T1 construct: endogenous in cells; host or cells: HeLa cells stimulated with 100 ng/mL human IFN-γ
Protocol: To evaluate the IDO1 inhibitory activity of the newly synthesized derivatives, HeLa cells with high IDO1 expression were used as the experimental model. […] To perform the HeLa cell-based IDO1 inhibition assay, HeLa cells were seeded at a density of 50,000 cells per well in a 96-well microplate containing 100 μL of DMEM supplemented with 10% fetal bovine serum and 1% penicillin-streptomycin. The cells were incubated overnight at 37 °C in a humidified atmosphere with 5% CO2. The following day, 100 μL of growth medium containing diluted inhibitors and 100 ng/mL human IFN-γ was added to each well. The cells were then incubated at 37 °C in a CO2 incubator for 18 h. […] The plate was incubated at 50 °C for 30 min and then centrifuged at 2,500 rpm for 10 min to remove any sediment. Next, 100 μL of the supernatant was transferred to a separate 96-well plate and mixed with 100 μL of 2% (w/v) 4-(dimethylamino)benzaldehyde in acetic acid. After a 10-min incubation at room temperature, the absorbance of the resulting yellow color, indicative of kynurenine, was measured at 480 nm using a microplate reader.

[2] = test system: CFA-induced inflammatory pain model; experiment: CFA-induced spontaneous pain, flinching and guarding behaviors; type: in vivo; details: CFA mice, 30 mg/kg i.p. repeated, 72 h post-CFA
Protocol: To evaluate the analgesic effects of Compound 14e in vivo, we established an inflammatory pain model using intraplantar injection of CFA. Compound 14e (30 mg/kg) was administered intraperitoneally at 6 h, with subsequent doses at 48 and 72 h after CFA injection. Behavioral assessments, including von Frey testing for mechanical allodynia and heat stimuli for thermal hyperalgesia, were conducted on the injected hind paw at baseline (BL), as well as at 6, 12, 18, 24, 48 and 72 h post-CFA injection. Additionally, flinching and guarding behaviors, indicators of spontaneous pain, were evaluated 72 h after CFA injection. […] (A,B) Evaluation of CFA-induced mechanical allodynia as assessed by withdrawal frequency to 0.07 g (A) and 0.4 g (B) von Frey filaments in mice repetitive treated with 10% DMSO or compound 14e. (C) Assessment of CFA-induced thermal hyperalgesia in the latency in mice treated with 10% DMSO or compound 14e. […] The dosage of compound 14e was determined based on our preliminary experiments. Spontaneous nociceptive behavior was recorded in previous studies ([Liu et al., 2023]; [Yang et al., 2018]) Mice were placed in the Plexiglas chamber and allowed to habituate for 30 min. Following acclimatization, the number of flinches and the time spent on guarding behaviors were analyzed for 10 min. […]

T1 sequence (P14902 whole entry): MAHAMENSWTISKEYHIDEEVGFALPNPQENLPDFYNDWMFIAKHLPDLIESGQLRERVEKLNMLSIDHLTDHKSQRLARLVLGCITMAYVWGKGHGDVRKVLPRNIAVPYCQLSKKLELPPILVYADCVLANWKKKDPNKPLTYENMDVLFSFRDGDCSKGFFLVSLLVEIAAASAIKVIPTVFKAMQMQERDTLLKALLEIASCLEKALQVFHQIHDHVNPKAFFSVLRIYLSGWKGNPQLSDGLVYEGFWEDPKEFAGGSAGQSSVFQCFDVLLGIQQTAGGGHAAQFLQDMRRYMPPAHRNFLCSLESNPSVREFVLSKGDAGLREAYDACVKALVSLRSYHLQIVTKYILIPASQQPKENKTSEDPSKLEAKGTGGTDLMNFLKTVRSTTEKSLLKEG

Compound: O=C1COc2ccc(NC(=O)c3cccc(-c4cn(Cc5c(F)cccc5Cl)nn4)c3)cc2N1 [Compound 14e]
- mechanical allodynia, paw withdrawal frequency (PWF) [1]: significantly alleviated
- IC50 (IDO1): 3.63 µM
- spontaneous pain behaviors (flinching and guarding) [2]: significantly reduced
